Assay results published in patent publication US10561629B2, “Food containing glycine and use thereof” (AJINOMOTO CO., INC., priority 2004, dated 2020).
Where two headings read alike, the source gives them in different places.

Legend:
[1] = one participant, 1.0-1.5 g tablet glycine, trip to East Coast USA, vs previous similar trips
From the text: In the Figure, glycine (substantially pure tablet glycine containing only excipient and flavor) was taken at the time point marked with an arrow, wherein 1.0 g was taken on “June 20” and “June 21” and 1.5 g was taken on “June 22”-“June 26” and “June 29”.

[2] = for Heavy sleepiness (1 pm to 5 pm next afternoon) / Mild sleepiness (1 pm to 5 pm next afternoon) / No sleepiness (1 pm to 5 pm next afternoon): intake of glycine 1.5 g before sleep
From the text: Three test participants (test participants A-C, body weight 64-74 kg) who were then visiting the U.S. for 5 days took glycine (1.5 g, substantially pure tablet glycine containing only excipient and flavor) before sleep and evaluated the sleepiness felt from 1 pm to 5 pm the next afternoon in 3 levels as compared to the absence of glycine.

[3] = 3 g before bed
Protocol: The test participant (body weight 45 kg) took, before going to bed, 3 g of glycine directly or upon addition to various foods (see, Table 3). The content (amount based on amino acid) of an amino acid other than glycine or a substance that can be hydrolyzed to give an amino acid other than glycine in these foods was generally 0 to 4 g. As compared to free of glycine intake, easiness of falling asleep and realization of deep sleep upon waking the next morning were recorded and summarized in Table 3.

[4] = From the text: Table 5 reports the bowel movements on the next morning and the corresponding number of days.
[5] = test participant A, in water before bed
From the text: The test participant A (body weight 45 kg) took glycine (substantially pure powder) in an amount shown in Table 6 before going to bed by dissolving same in water, and recorded the level of realization of deep sleep. When the realization of deep sleep increased than usual, “+” was marked, when the realization of deep sleep was almost the same as usual, “±” was marked and when it became worse, “−” was marked.

[6] = 3 g 1 hr before bedtime
Protocol: A double-blind crossover test aiming at confirmation of the effect of glycine on sleep was performed with 14 male adults (body weight 64-112.5 kg, average 81.2 kg) concerned about snoring and apnea condition during sleep. The test participants took glycine (granules containing citric acid and the like) in an amount equivalent to 3 g of glycine 1 hr before bedtime, and reduced maltose containing components other than glycine (citric acid and the like) and adjusted to an almost indistinguishable taste was used as a placebo.
(1) For the evaluation of sleep condition, overnight polysomnography was used for the measurement.
In addition, the sleep condition of the night before was examined on waking using the sleep questionnaire.

[7] = rats, 2 g/kg, mean±standard error
Protocol: Glycine (substantially pure glycine powder) was administered to rats at 0 g/kg and 2 g/kg (0 g/kg for control) and using the rat, spontaneous electroencephalogram and cervix electromyogram were recorded through an electrode placed in the cortex hippocampus, and further, the amount of spontaneous motor activity was measured by an infrared ray monitor. The sleep-wake cycle was analyzed from the electroencephalogram, electromyogram and behavior record (kymogram), and percent occupation of light period and dark period and latency time were calculated.

[8] = 3 g 30 min before bedtime, next daytime, mean ± standard error
Protocol: A single-blind crossover study aimed at confirmation of the effect of glycine on sleep was performed with 7 male adults (30s-40s, body weight 62-79 kg). The test participants took glycine (granule containing citric acid and the like) in an amount equivalent to 3 g of glycine 30 min before bedtime, and reduced maltose containing components other than glycine (citric acid and the like) and adjusted to an almost indistinguishable taste was used as a placebo. The sleep hours on the day of administration was limited to about 75% (5-6.5 hr) of comfortable sleep hours each test participant voluntarily notified, and a nap was prohibited until the end of the administration. For the test, glycine and placebo were each taken for 3 days with an interval of a 14-21 day non-intake period, totaling 4-5 weeks. Of the 3 days, the following investigation and measurement were performed at 10 o'clock, 14 o'clock and 18 o'clock of the next day of the first day of the intake.
(2) To evaluate the cognitive and psychomotor function as a reflection of the quality of sleep, an operation efficiency test using a computer was performed. As a three kind discrimination response task, a task of responding to only one predetermined kind from randomly designed three kinds of graphics on the screen was given.

[9] = intake at 0.1 g per day; cited from earlier work
[10] = addition to Japanese tea, 10 days of testing
[11] = addition to herb tea, 5 days of testing
[12] = addition to hot milk, 4 days of testing
[13] = addition to hot water or water, 14 days of testing
[14] = addition to yoghurt, 7 days of testing
[15] = test participant A, tablet intake (1 g) before bed
[16] = test participant B, intake (3 g) with yoghurt before bed
[17] = test participant B, powder intake (3 g) before bed
[18] = 0-3 hr after administration, dark period
[19] = 0-3 hr after administration, light period
[20] = 4-6 hr after administration, dark period
[21] = 4-6 hr after administration, light period

Which results are given for `NCC(=O)O` [glycine, Glycine]?
arousal during sleep [1]: reduced or eliminated arousal during sleep; sleepiness during the next daytime ([2]; all three test participants, 1.5 g before sleep, compared to absence of glycine): felt a lower level of sleepiness; Heavy sleepiness (1 pm to 5 pm next afternoon) ([2]; test participant A): 0 days; Mild sleepiness (1 pm to 5 pm next afternoon) ([2]; test participant A): 2 days; No sleepiness (1 pm to 5 pm next afternoon) ([2]; test participant A): 2 days; Heavy sleepiness (1 pm to 5 pm next afternoon) ([2]; test participant B): 0 days; Mild sleepiness (1 pm to 5 pm next afternoon) ([2]; test participant B): 1 days; No sleepiness (1 pm to 5 pm next afternoon) ([2]; test participant B): 2 days; Heavy sleepiness (1 pm to 5 pm next afternoon) ([2]; test participant C): 0 days; Mild sleepiness (1 pm to 5 pm next afternoon) ([2]; test participant C): 0 days; No sleepiness (1 pm to 5 pm next afternoon) ([2]; test participant C): 1 days; Improved easiness of falling asleep [3, 10]: 9 days; Improved realization of deep sleep [3, 10]: 10 days; Improved easiness of falling asleep [3, 11]: 5 days; Improved realization of deep sleep [3, 11]: 5 days; Improved easiness of falling asleep [3, 12]: 4 days; Improved realization of deep sleep [3, 12]: 4 days; Improved easiness of falling asleep [3, 13]: 14 days; Improved realization of deep sleep [3, 13]: 14 days; Improved easiness of falling asleep [3, 14]: 7 days; Improved realization of deep sleep [3, 14]: 7 days; Improved easiness of falling asleep ([3]; powder, 3 days of testing): 3 days; Improved realization of deep sleep ([3]; powder, 3 days of testing): 3 days; No bowel movement (next morning) [4, 15]: 2 days; Presence of bowel movement (next morning) [4, 15]: 10 days; No bowel movement (next morning) [4, 16]: 0 days; Presence of bowel movement (next morning) [4, 16]: 4 days; No bowel movement (next morning) [4, 17]: 1 days; Presence of bowel movement (next morning) [4, 17]: 7 days; Realization of deep sleep ([5]; 1/1 teaspoon, general amount 2.5 g): +; Realization of deep sleep ([5]; ¼ teaspoon, general amount 0.6 g): +; Realization of deep sleep ([5]; ½ teaspoon, general amount 1.2 g): +; slow wave sleep (%) in sleep onset initial stage ([6]; early stage (1 hr) of sleep onset, placebo 6.4, p value 0.020): 12.0%; lights-out - sleep onset ([6]; placebo 16.3, p value 0.322): 13.3 min; lights-out - slow wave sleep ([6]; placebo 103.4, p value 0.042): 52.2 min; Percent occupation, fast wave sleep stage [7, 18]: 3.2 ± 1.7%; Percent occupation, slow wave sleep stage [7, 18]: 29.2 ± 6.5%; Percent occupation, waking stage [7, 18]: 67.6 ± 7.9%; Percent occupation, fast wave sleep stage [7, 19]: 5.5 ± 1.6%; Percent occupation, slow wave sleep stage [7, 19]: 54.9 ± 4.9%; Percent occupation, waking stage [7, 19]: 39.6 ± 6.0%; Percent occupation, fast wave sleep stage [7, 20]: 3.0 ± 0.7%; Percent occupation, slow wave sleep stage [7, 20]: 31.5 ± 2.8%; Percent occupation, waking stage [7, 20]: 65.6 ± 3.4%; Percent occupation, fast wave sleep stage [7, 21]: 13.4 ± 2.1%; Percent occupation, slow wave sleep stage [7, 21]: 65.9 ± 2.0%; Percent occupation, waking stage [7, 21]: 20.7 ± 0.8%; Amount of spontaneous motor activity at 6 hr after administration ([7]; dark period): 19464 ± 2765 count; Latency time, fast wave sleep stage ([7]; dark period): 118.2 ± 28.3 min; Latency time, slow wave sleep stage ([7]; dark period): 78.6 ± 22.8 min; Amount of spontaneous motor activity at 6 hr after administration ([7]; light period): 2316 ± 295 count; Latency time, fast wave sleep stage ([7]; light period): 20.9 ± 3.4 min; Latency time, slow wave sleep stage ([7]; light period): 8.5 ± 1.2 min; Response time ([8]; placebo 0.393 ± 0.025, p value 0.028): 0.366 ± 0.021 s; Lapse (number of response where reaction time was 500 msec or longer) ([8]; placebo 2.67 ± 3.06, p value 0.017): 1.19 ± 1.69 times; percentage of correct answer ([8]; placebo 95.6 ± 5.20, p value 0.043): 98.4 ± 1.16%; memory and attention [9]: increases memory and attention
